Data reported in patent US20210361735A1, “MINIGASTRIN DERIVATES, IN PARTICULAR FOR USE IN CCK2 RECEPTOR POSITIVE TUMOUR DIAGNOSIS AND/OR TREATMENT” (PAUL SCHERRER INSTITUT, priority 2017, published 2021).
Numbered stars: 1 amine (or outer) side, 2 acyl side, 3 side chain; on linkers, the order of the positions; unused ones are H or OH. Square brackets hold non-standard residues; d marks the D form. Peptide text beside a SMILES is read from it. * marks the point of attachment. X1 = CCCC[C@@H](C(=O)[*:2])n1cc([C@H](Cc2c[nH]c3ccccc23)N[*:1])nn1; X4 = C[C@H](N[*:1])c1cn([C@@H](Cc2ccc(O)cc2)C(=O)[*:2])nn1; DOTA = O=C(O)CN1CCN(CC(=O)O)CCN(CC(=O)*)CCN(CC(=O)O)CC1; X3 = O=C([C@H](Cc1c[nH]c2ccccc12)n1cc(CN[*:1])nn1)[*:2]; X2 = O=C(Cn1cc([C@H](Cc2ccc(O)cc2)N[*:1])nn1)[*:2]; Nle = CCCC[C@H](N)C(=O)O

Tests used:
CCK2R = CCK2R (Homo sapiens, UniProt P32239); assay: IC50 (nM); set-up: Human Medullary Thyroid Cancer cells (MZ-CRCl) expressing the CCK2R; endogenous in cells; host or cells: MZ-CRC1 human medullary thyroid cancer cells
CCK2R, sequence (P32239 whole entry, looked up): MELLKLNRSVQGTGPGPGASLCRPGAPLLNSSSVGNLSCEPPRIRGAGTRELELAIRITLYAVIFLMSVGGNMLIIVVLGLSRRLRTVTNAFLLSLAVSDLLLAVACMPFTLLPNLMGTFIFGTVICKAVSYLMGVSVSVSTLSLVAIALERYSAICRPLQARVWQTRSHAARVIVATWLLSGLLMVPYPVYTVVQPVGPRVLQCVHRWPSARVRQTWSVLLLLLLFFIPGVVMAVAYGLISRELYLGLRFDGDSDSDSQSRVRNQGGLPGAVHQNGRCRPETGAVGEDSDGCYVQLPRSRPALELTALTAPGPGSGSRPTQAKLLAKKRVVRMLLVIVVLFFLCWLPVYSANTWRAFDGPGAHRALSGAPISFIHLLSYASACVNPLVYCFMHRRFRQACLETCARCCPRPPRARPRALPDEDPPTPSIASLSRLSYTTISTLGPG
Description: (§1) Table printed on a drawing sheet, Fig. 4
Head of the field: IC50 (nM)
(§2) Footnotes: Significant improvement / Significant drawback
First copying reader's note: Light grey shading of a cell marks a significant improvement and dark grey shading a significant drawback; logD was measured at pH 7.4.
Where the first naming reader finds the target: patent_title: MINIGASTRIN DERIVATES, IN […] FOR USE IN CCK2 RECEPTOR POSITIVE TUMOUR DIAGNOSIS AND/OR TREATMENT

Blood plasma stability = format: in vitro ADME; conditions: human blood plasma, 37° C.; for at least more than 2 hours; FIG. 3
Description: The ^177Lu-labelled compounds were diluted with 0.9% NaCl to a concentration of 3.75 μM and incubated (375 pmol, 100 μL, 7.5-12 MBq) in nitrogen-flushed fresh human blood plasma (1.5 mL) at 37° C. At different time points (0.5, 1, 2, 4, 6 and 24 h) aliquots (75 μL) were taken and the proteins were precipitated in CH3CN (100 μL) and centrifuged (2 min, 14680 rpm, rt). The supernatant (75 μL) was diluted with water (75 μL) and analyzed by γ-HPLC.

[1] = tested on: CCK-2 receptor positive tumours; conditions: in vivo; cited from earlier work
Fig. 4 = assay: Fig. 4
Description: as §1, §2
First reader's note: Light grey shading of a cell marks a significant improvement and dark grey shading a significant drawback; logD was measured at pH 7.4.

| Compound | Plasma half live (Fig. 4) [h] | also measured |
| --- | --- | --- |
| CCCC[C@H](NC(=O)[C@H](Cc1c[nH]c2ccccc12)NC(=O)CNC(=O)[C@H](Cc1ccc(O)cc1)NC(=O)[C@H](C)NC(=O)[C@@H](CCC(=O)O)NC(=O)CN1CCN(CC(=O)O)CCN(CC(=O)O)CCN(CC(=O)O)CC1)C(=O)N[C@@H](CC(=O)O)C(=O)N[C@@H](Cc1ccccc1)C(N)=O [DOTA[Nle15]-MG11, DOTA-DGlu-Ala-Tyr-Gly-Trp-Nle-Asp-Phe-NH2] ({DOTA}-[dE]AYGW[Nle]DF-NH2) |  | IC50 (CCK2R): 16.1 nM |
| CCCC[C@H](NC(=O)[C@H](Cc1c[nH]c2ccccc12)NC(=O)Cn1cc([C@H](Cc2ccc(O)cc2)NC(=O)[C@H](C)NC(=O)[C@@H](CCC(=O)O)NC(=O)CN2CCN(CC(=O)O)CCN(CC(=O)O)CCN(CC(=O)O)CC2)nn1)C(=O)N[C@@H](CC(=O)O)C(=O)N[C@@H](Cc1ccccc1)C(N)=O [DOTA[Nle15, Tyr^12-(Tz)-Gly^13]-MG11, DOTA[Nle15, Tyr12-ψ[Tz]-Gly13]-MG11] ({DOTA}-[dE]A[X2]W[Nle]DF-NH2) |  | peptides remaining stable in plasma (Blood plasma stability): more than 60% |
| DOTA-DGlu-DGlu-DGlu-DGlu-DGlu-DGlu-Ala-Tyr-Gly-Trp-Nle-Asp-Phe-NH2 [PP-F11N] |  | tumour-kidney-ratio [1]: excellent |
| CCCC[C@@H](C(=O)N[C@@H](CC(=O)O)C(=O)N[C@@H](Cc1ccccc1)C(N)=O)n1cc([C@H](Cc2c[nH]c3ccccc23)NC(=O)CNC(=O)[C@H](Cc2ccc(O)cc2)NC(=O)[C@H](C)NC(=O)[C@@H](CCC(=O)O)NC(=O)CN2CCN(CC(=O)O)CCN(CC(=O)O)CCN(CC(=O)O)CC2)nn1 [DOTA[Nle15, Trp14-(Tz)-Nle15]-MG11] ({DOTA}-[dE]AYG[X1]DF-NH2) | >24 |  |
| CCCC[C@H](NC(=O)[C@H](Cc1c[nH]c2ccccc12)n1cc(CNC(=O)[C@H](Cc2ccc(O)cc2)NC(=O)[C@H](C)NC(=O)[C@@H](CCC(=O)O)NC(=O)CN2CCN(CC(=O)O)CCN(CC(=O)O)CCN(CC(=O)O)CC2)nn1)C(=O)N[C@@H](CC(=O)O)C(=O)N[C@@H](Cc1ccccc1)C(N)=O [DOTA[Nle15, Gly13-(Tz)-Trp14]-MG11] ({DOTA}-[dE]AY[X3][Nle]DF-NH2) | 4.3 |  |
| CCCC[C@H](NC(=O)[C@H](Cc1c[nH]c2ccccc12)NC(=O)CNC(=O)[C@H](Cc1ccc(O)cc1)n1cc([C@H](C)NC(=O)[C@@H](CCC(=O)O)NC(=O)CN2CCN(CC(=O)O)CCN(CC(=O)O)CCN(CC(=O)O)CC2)nn1)C(=O)N[C@@H](CC(=O)O)C(=O)N[C@@H](Cc1ccccc1)C(N)=O [DOTA[Nle15, Ala11-(Tz)-Tyr12]-MG11] ({DOTA}-[dE][X4]GW[Nle]DF-NH2) | 16.7 |  |
